Results reported in US7138361B2, “Herbicidal heterocycles” (E. I. du Pont de Nemours and Company, priority 2000, dated 2006).

Tests used:
Format in all cases: in vivo
[1] = tested on: Surinam grass (Brachiaria decumbens); test: Test B postemergence; conditions: 13 to 15 days
Text: (§1) Seeds selected from barnyardgrass (Echinochloa crus-galli), Surinam grass (Brachiaria decumbens), cocklebur (Xanthium strumarium), corn (Zea mays), crabgrass (Digitaria sanguinalis), giant foxtail (Setaria faberii), lambsquarters (Chenopodium album), morning glory (Ipomoea hederacea), pigweed (Amaranthus retroflexus), rice (Oryza saliva) and velvetleaf (Abutilon theophrasti) were planted and treated preemergence with test chemicals formulated in a non-phytotoxic solvent mixture which included a surfactant.
(§2) At the same time, plants selected from these crop and weed species and also blackgrass (Alopecurus myosuroides), wheat (Triticum aestivum) and wild oat (Avena fatua) were treated with postemergence applications of test chemicals formulated in the same manner. Plants ranged in height from 2 to 18 cm (1- to 4-leaf stage) for postemergence treatments. Plant species in the flooded paddy test consisted of rice (Oryza saliva), smallflower flatsedge (Cyperus difformis), duck salad (Heteranthera limosa) and barnyardgrass (Echinochloa crus-galli) grown to the 2-leaf stage for testing. Treated plants and controls were maintained in a greenhouse for 13 to 15 days, after which time all species were compared to controls and visually evaluated. Plant response ratings, summarized in Table B, are based on a scale of 0 to 100 where 0 is no effect and 100 is complete control. A dash (-) response means no test result.

[2] = tested on: barnyardgrass (Echinochloa crus-galli); test: Test B postemergence; conditions: 13 to 15 days
Text: as §1, §2

[3] = tested on: blackgrass (Alopecurus myosuroides); test: Test B postemergence; conditions: 13 to 15 days
Text: as §1, §2

[4] = tested on: corn (Zea mays); test: Test B postemergence; conditions: 13 to 15 days
Text: as §1, §2

[5] = tested on: crabgrass (Digitaria sanguinalis); test: Test B postemergence; conditions: 13 to 15 days
Text: as §1, §2

[6] = tested on: giant foxtail (Setaria faberii); test: Test B postemergence; conditions: 13 to 15 days
Text: as §1, §2

[7] = tested on: lambsquarters (Chenopodium album); test: Test B postemergence; conditions: Rate 500 g/ha, scale 0 to 100, 0 is no effect, 100 is complete control, 13 to 15 days
Text: as §1, §2

[8] = tested on: morning glory (Ipomoea hederacea); test: Test B postemergence; conditions: Rate 500 g/ha, scale 0 to 100, 0 is no effect, 100 is complete control, 13 to 15 days
Text: as §1, §2

[9] = tested on: pigweed (Amaranthus retroflexus); test: Test B postemergence; conditions: Rate 500 g/ha, scale 0 to 100, 0 is no effect, 100 is complete control, 13 to 15 days
Text: as §1, §2

[10] = tested on: velvetleaf (Abutilon theophrasti); test: Test B postemergence; conditions: Rate 500 g/ha, scale 0 to 100, 0 is no effect, 100 is complete control, 13 to 15 days
Text: as §1, §2

[11] = tested on: wheat (Triticum aestivum); test: Test B postemergence; conditions: Rate 500 g/ha, scale 0 to 100, 0 is no effect, 100 is complete control, 13 to 15 days
Text: as §1, §2

[12] = tested on: wild oat (Avena fatua); test: Test B postemergence; conditions: Rate 500 g/ha, scale 0 to 100, 0 is no effect, 100 is complete control, 13 to 15 days
Text: as §1, §2

[13] = tested on: Surinam grass (Brachiaria decumbens); test: Test B preemergence
Text: as §1, §2

[14] = tested on: barnyardgrass (Echinochloa crus-galli); test: Test B preemergence
Text: as §1, §2

[15] = tested on: cocklebur (Xanthium strumarium); test: Test B preemergence
Text: as §1, §2

[16] = tested on: corn (Zea mays); test: Test B preemergence
Text: as §1, §2

[17] = tested on: crabgrass (Digitaria sanguinalis); test: Test B preemergence
Text: as §1, §2

[18] = tested on: giant foxtail (Setaria faberii); test: Test B preemergence
Text: as §1, §2

[19] = tested on: lambsquarters (Chenopodium album); test: Test B preemergence
Text: as §1, §2

[20] = tested on: morning glory (Ipomoea hederacea); test: Test B preemergence
Text: as §1, §2

[21] = tested on: pigweed (Amaranthus retroflexus); test: Test B preemergence
Text: as §1, §2

[22] = tested on: rice (Oryza saliva); test: Test B preemergence
Text: as §1, §2

[23] = tested on: velvetleaf (Abutilon theophrasti); test: Test B preemergence
Text: as §1, §2

[24] = tested on: barnyardgrass (Echinochloa crus-galli); test: Test C flooded paddy test; conditions: for Barnyardgrass plant response rating: Flooded Paddy, scale 0 to 100, 0 no effect, 100 complete control; for Plant response rating, Barnyardgrass: flooded paddy test, scale 0 to 100 (0 no effect, 100 complete control)
Protocol: (§3) At the same time, plants selected from these crop and weed species and also winter barley (Hordeum vulgare), blackgrass (Alopecurus myosuroides), canary grass (Phalaris minor), chickweed (Stellaria media), downy brome (Bromus tectorum), green foxtail (Setaria viridis), Italian ryegrass (Lolium multiflorum), wheat (Triticum aestivum), wild oat (Avena fatua) and windgrass (Apera spica-venti) were treated with postemergence applications of some of the test chemicals formulated in the same manner. Plants ranged in height from 2 to 18 cm (1- to 4-leaf stage) for postemergence treatments. Plant species in the flooded paddy test consisted of rice (Oryza saliva), smallflower flatsedge (Cyperus difformis), duck salad (Heteranthera limosa) and barnyardgrass (Echinochloa crus-galli) grown to the 2-leaf stage for testing. Treated plants and controls were maintained in a greenhouse for 12 to 14 days, after which time all species were compared to controls and visually evaluated. Plant response ratings, summarized in Table C, are based on a scale of 0 to 100 where 0 is no effect and 100 is complete control. A dash (-) response means no test result.

[25] = tested on: duck salad (Heteranthera limosa); test: Test C flooded paddy test; conditions: for Ducksalad plant response rating: Flooded Paddy, scale 0 to 100, 0 no effect, 100 complete control; for Plant response rating, Ducksalad: flooded paddy test, scale 0 to 100 (0 no effect, 100 complete control)
Protocol: as §3

[26] = tested on: rice (Oryza saliva); test: Test C flooded paddy test; conditions: for Rice plant response rating: Flooded Paddy, scale 0 to 100, 0 no effect, 100 complete control; for Plant response rating, Rice: flooded paddy test, scale 0 to 100 (0 no effect, 100 complete control)
Protocol: as §3

[27] = tested on: smallflower flatsedge (Cyperus difformis); test: Test C flooded paddy test; conditions: for Flatsedge plant response rating: Flooded Paddy, scale 0 to 100, 0 no effect, 100 complete control; for Plant response rating, Flatsedge: flooded paddy test, scale 0 to 100 (0 no effect, 100 complete control)
Protocol: as §3

[28] = Rate 125 g/ha, scale 0 (no effect) to 100 (complete control)
[29] = Rate 500 g/ha, scale 0 to 100, 0 is no effect, 100 is complete control
[30] = Preemergence, Rate 500 g/ha, scale 0 to 100, 0 no effect, 100 complete control
[31] = preemergence, Rate 125 g/ha, scale of 0 to 100 where 0 is no effect and 100 is complete control, 13 to 15 days

Compound: CC(C)(C)c1ccn(C2CCN(c3cccc(C#N)c3)C2=O)n1 (stereo not shown) [Compound 104]
- Plant response rating, Surinam grass [1, 28]: 0
- Plant response rating, Surinam grass [1, 29]: 0
- Plant response rating, Barnyardgrass [2, 28]: 0
- Plant response rating, Barnyardgrass [2, 29]: 0
- Plant response rating, Blackgrass [3, 28]: 0
- Plant response rating, Blackgrass [3, 29]: 0
- Plant response rating, Corn [4, 28]: 0
- Plant response rating, Corn [4, 29]: 0
- Plant response rating, Crabgrass [5, 28]: 0
- Plant response rating, Crabgrass [5, 29]: 0
- Plant response rating, Foxtail, Giant [6, 28]: 0
- Plant response rating, Foxtail, Giant [6, 29]: 0
- Plant response rating, Lambsquarters [7]: 0
- Plant response rating, Morningglory [8]: 0
- Plant response rating, Pigweed [9]: 0
- Plant response rating, Velvetleaf [10]: 0
- Plant response rating, Wheat [11]: 0
- Plant response rating, Wild Oat [12]: 0
- Plant response rating, Surinam grass [13, 30]: 0
- Plant response rating, Surinam grass [13, 31]: 0
- Plant response rating, Barnyardgrass [14, 30]: 0
- Plant response rating, Barnyardgrass [14, 31]: 0
- Plant response rating, Cocklebur [15, 30]: 0
- Plant response rating, Cocklebur [15, 31]: 0
- Plant response rating, Corn [16, 30]: 0
- Plant response rating, Corn [16, 31]: 0
- Plant response rating, Crabgrass [17, 30]: 0
- Plant response rating, Crabgrass [17, 31]: 0
- Plant response rating, Foxtail, Giant [18, 30]: 0
- Plant response rating, Foxtail, Giant [18, 31]: 0
- Plant response rating, Lambsquarters [19, 30]: 100
- Plant response rating, Lambsquarters [19, 31]: 100
- Plant response rating, Morningglory [20, 30]: 0
- Plant response rating, Morningglory [20, 31]: 0
- Plant response rating, Pigweed [21, 30]: 100
- Plant response rating, Pigweed [21, 31]: 70
- Plant response rating, Rice [22, 30]: 0
- Plant response rating, Rice [22, 31]: 0
- Plant response rating, Velvetleaf [23, 30]: 0
- Plant response rating, Velvetleaf [23, 31]: 0
- Barnyardgrass plant response rating ([24]; Rate 250 g/ha): 0
- Barnyardgrass plant response rating ([24]; Rate 500 g/ha): 0
- Plant response rating, Barnyardgrass ([24]; Rate 62 g/ha): 0
- Plant response rating, Barnyardgrass ([24]; Rate 125 g/ha): 0
- Ducksalad plant response rating ([25]; Rate 250 g/ha): 0
- Ducksalad plant response rating ([25]; Rate 500 g/ha): 0
- Plant response rating, Ducksalad ([25]; Rate 62 g/ha): 0
- Plant response rating, Ducksalad ([25]; Rate 125 g/ha): 0
- Rice plant response rating ([26]; Rate 250 g/ha): 0
- Rice plant response rating ([26]; Rate 500 g/ha): 0
- Plant response rating, Rice ([26]; Rate 62 g/ha): 0
- Plant response rating, Rice ([26]; Rate 125 g/ha): 0
- Flatsedge plant response rating ([27]; Rate 250 g/ha): 0
- Flatsedge plant response rating ([27]; Rate 500 g/ha): 0
- Plant response rating, Flatsedge ([27]; Rate 62 g/ha): 0
- Plant response rating, Flatsedge ([27]; Rate 125 g/ha): 0

Compound: CC(C)(C)c1ccn(C2CCN(c3ccc4c(c3)CCC4)C2=O)n1 (stereo not shown) [Compound 105]
- Plant response rating, Surinam grass [1, 28]: 0
- Plant response rating, Surinam grass [1, 29]: 0
- Plant response rating, Barnyardgrass [2, 28]: 0
- Plant response rating, Barnyardgrass [2, 29]: 0
- Plant response rating, Blackgrass [3, 28]: 0
- Plant response rating, Blackgrass [3, 29]: 0
- Plant response rating, Corn [4, 28]: 0
- Plant response rating, Corn [4, 29]: 0
- Plant response rating, Crabgrass [5, 28]: 0
- Plant response rating, Crabgrass [5, 29]: 0
- Plant response rating, Foxtail, Giant [6, 28]: 0
- Plant response rating, Foxtail, Giant [6, 29]: 0
- Plant response rating, Lambsquarters [7]: 0
- Plant response rating, Morningglory [8]: 0
- Plant response rating, Pigweed [9]: 0
- Plant response rating, Velvetleaf [10]: 0
- Plant response rating, Wheat [11]: 0
- Plant response rating, Wild Oat [12]: 0
- Plant response rating, Surinam grass [13, 30]: 0
- Plant response rating, Surinam grass [13, 31]: 0
- Plant response rating, Barnyardgrass [14, 30]: 0
- Plant response rating, Barnyardgrass [14, 31]: 0
- Plant response rating, Cocklebur [15, 30]: 0
- Plant response rating, Cocklebur [15, 31]: 0
- Plant response rating, Corn [16, 30]: 0
- Plant response rating, Corn [16, 31]: 0
- Plant response rating, Crabgrass [17, 30]: 30
- Plant response rating, Crabgrass [17, 31]: 0
- Plant response rating, Foxtail, Giant [18, 30]: 20
- Plant response rating, Foxtail, Giant [18, 31]: 0
- Plant response rating, Lambsquarters [19, 30]: 100
- Plant response rating, Lambsquarters [19, 31]: 60
- Plant response rating, Morningglory [20, 30]: 0
- Plant response rating, Morningglory [20, 31]: 0
- Plant response rating, Pigweed [21, 30]: 100
- Plant response rating, Pigweed [21, 31]: 0
- Plant response rating, Rice [22, 30]: 0
- Plant response rating, Rice [22, 31]: 0
- Plant response rating, Velvetleaf [23, 30]: 0
- Plant response rating, Velvetleaf [23, 31]: 0
- Barnyardgrass plant response rating ([24]; Rate 250 g/ha): 20
- Barnyardgrass plant response rating ([24]; Rate 500 g/ha): 60
- Plant response rating, Barnyardgrass ([24]; Rate 62 g/ha): 0
- Plant response rating, Barnyardgrass ([24]; Rate 125 g/ha): 0
- Ducksalad plant response rating ([25]; Rate 250 g/ha): 0
- Ducksalad plant response rating ([25]; Rate 500 g/ha): 0
- Plant response rating, Ducksalad ([25]; Rate 62 g/ha): 0
- Plant response rating, Ducksalad ([25]; Rate 125 g/ha): 0
- Rice plant response rating ([26]; Rate 250 g/ha): 20
- Rice plant response rating ([26]; Rate 500 g/ha): 30
- Plant response rating, Rice ([26]; Rate 62 g/ha): 0
- Plant response rating, Rice ([26]; Rate 125 g/ha): 0
- Flatsedge plant response rating ([27]; Rate 250 g/ha): 90
- Flatsedge plant response rating ([27]; Rate 500 g/ha): 90
- Plant response rating, Flatsedge ([27]; Rate 62 g/ha): 40
- Plant response rating, Flatsedge ([27]; Rate 125 g/ha): 90
